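Tested at 5 concentrations; 48 h exposure; 96-well plates; endpoints linearly interpolated, else capped at highest concentration. Abbreviation: GI50, concentration required for 50% inhibition of growth. The concentration for full growth arrest is given as TGI.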
Assays:
Assay in all cases: DTP human tumour cell line panel, 48 h
[1] = system: OVCAR-4 ovarian
[2] = system: HCT-116 colon
[3] = system: SK-MEL-2 melanoma
[4] = system: TK-10 renal
[5] = system: HOP-92 NSCLC
[6] = system: M14 melanoma
[7] = system: HCT-15 colon
[8] = system: OVCAR-8 ovarian
[9] = system: CCRF-CEM leukemia
[10] = system: HCC-2998 colon
[11] = system: PC-3 prostate
[12] = system: HS 578T breast
[13] = system: SF-268 CNS
[14] = system: HL-60(TB) leukemia
[15] = system: EKVX NSCLC
[16] = system: IGROV1 ovarian
[17] = system: HT29 colon
[18] = system: SR leukemia
[19] = system: MOLT-4 leukemia
[20] = system: MCF7 breast
[21] = system: SNB-75 CNS
[22] = system: SN12C renal
[23] = system: UO-31 renal
[24] = system: COLO 205 colon
[25] = system: NCI-H522 lung
[26] = system: SF-295 CNS
[27] = system: KM12 colon
[28] = system: RXF 393 renal
[29] = system: SW-620 colon
[30] = system: SK-MEL-28 melanoma
[31] = system: T-47D breast
[32] = system: 786-0 renal
[33] = system: NCI/ADR-RES ovarian
[34] = system: MDA-MB-435
[35] = system: A549 NSCLC
[36] = system: K-562 leukemia
[37] = system: NCI-H460 lung
[38] = system: A498 renal
[39] = system: NCI-H23 lung
[40] = system: CAKI-1 renal
[41] = system: ACHN renal
[42] = system: U251 CNS
[43] = system: RPMI-8226 leukemia
[44] = system: SNB-19 CNS
[45] = system: LOX IMVI melanoma
[46] = system: SF-539 CNS
[47] = system: MALME-3M melanoma
[48] = system: NCI-H226 lung
[49] = system: OVCAR-5 ovarian
[50] = system: UACC-62 melanoma
[51] = system: SK-OV-3 ovarian
[52] = system: BT-549 breast
[53] = system: MDA-MB-231 breast
[54] = system: DU-145 prostate
[55] = system: HOP-62 NSCLC
[56] = system: MDA-MB-468 breast
[57] = system: SK-MEL-5 melanoma
[58] = system: OVCAR-3 ovarian
[59] = system: UACC-257 melanoma

C[C@H]1[C@H](C)CC[C@]2(COC(=O)CCC(=O)NCC#CCN3CCNCC3)CC[C@]3(C)C(=CC[C@@H]4[C@@]5(C)CCCNC(C)(C)[C@@H]5CC[C@]43C)[C@H]12
GI50 [1]: 25.1 µM
TGI [1]: 72.9 µM
GI50 [2]: 11.5 µM
TGI [2]: 23.6 µM
GI50 [3]: 17.7 µM
TGI [3]: 33.4 µM
GI50 [4]: 18.9 µM
TGI [4]: 37.4 µM
GI50 [5]: 13.2 µM
TGI [5]: 41.7 µM
GI50 [6]: 15.7 µM
TGI [6]: 30.9 µM
GI50 [7]: 14.5 µM
TGI [7]: 27.6 µM
GI50 [8]: 19 µM
TGI [8]: 37.9 µM
GI50 [9]: 16.8 µM
TGI [9]: 48.2 µM
GI50 [10]: 15.1 µM
TGI [10]: 29.2 µM
GI50 [11]: 11 µM
TGI [11]: 27.3 µM
GI50 [12]: 20.9 µM
TGI [12]: 55.7 µM
GI50 [13]: 17.9 µM
TGI [13]: 40.1 µM
GI50 [14]: 4.98 µM
TGI [14]: 27.1 µM
GI50 [15]: 15.9 µM
TGI [15]: 32.2 µM
GI50 [16]: 14.3 µM
TGI [16]: 27.3 µM
GI50 [17]: 12.3 µM
TGI [17]: 26.1 µM
GI50 [18]: 15.4 µM
TGI [18]: 61.5 µM
GI50 [19]: 9.96 µM
TGI [19]: 32.9 µM
GI50 [20]: 12.7 µM
TGI [20]: 25.3 µM
GI50 [21]: 13.3 µM
TGI [21]: 37.8 µM
GI50 [22]: 14.7 µM
TGI [22]: 28.8 µM
GI50 [23]: 12 µM
TGI [23]: 24.3 µM
GI50 [24]: 18.3 µM
TGI [24]: 36 µM
GI50 [25]: 16.4 µM
TGI [25]: 33.7 µM
GI50 [26]: 22.5 µM
TGI [26]: 57.2 µM
GI50 [27]: 17.5 µM
TGI [27]: 34 µM
GI50 [28]: 18.2 µM
TGI [28]: 45.6 µM
GI50 [29]: 15.5 µM
TGI [29]: 28.9 µM
GI50 [30]: 16.4 µM
TGI [30]: 30 µM
GI50 [31]: 19 µM
TGI [31]: 44.4 µM
GI50 [32]: 15 µM
TGI [32]: 34.6 µM
GI50 [33]: 17.4 µM
TGI [33]: 34.6 µM
GI50 [34]: 14.1 µM
TGI [34]: 27.5 µM
GI50 [35]: 14.9 µM
TGI [35]: 28.1 µM
GI50 [36]: 6.02 µM
TGI [36]: 20.5 µM
GI50 [37]: 16.5 µM
TGI [37]: 30.1 µM
GI50 [38]: 15.1 µM
TGI [38]: 28.3 µM
GI50 [39]: 16.2 µM
TGI [39]: 30.7 µM
GI50 [40]: 14.7 µM
TGI [40]: 28.4 µM
GI50 [41]: 16.4 µM
TGI [41]: 30 µM
GI50 [42]: 16.9 µM
TGI [42]: 32 µM
GI50 [43]: 17 µM
TGI [43]: 94.5 µM
GI50 [44]: 15.7 µM
TGI [44]: 29.1 µM
GI50 [45]: 20.5 µM
TGI [45]: 44.7 µM
GI50 [46]: 13.9 µM
TGI [46]: 26.8 µM
GI50 [47]: 15.8 µM
TGI [47]: 29.2 µM
GI50 [48]: 27.3 µM
TGI [48]: > 100 µM
GI50 [49]: 17.2 µM
TGI [49]: 30.9 µM
GI50 [50]: 14 µM
TGI [50]: 27.2 µM
GI50 [51]: 19.4 µM
TGI [51]: 44.7 µM
GI50 [52]: 16.2 µM
TGI [52]: 32.7 µM
GI50 [53]: 18.2 µM
TGI [53]: 32.1 µM
GI50 [54]: 17.5 µM
TGI [54]: 31.2 µM
GI50 [55]: 18.9 µM
TGI [55]: 36.8 µM
GI50 [56]: 10.7 µM
TGI [56]: 25.9 µM
GI50 [57]: 14.2 µM
TGI [57]: 31.9 µM
GI50 [58]: 14.1 µM
TGI [58]: 27.6 µM
GI50 [59]: 16.5 µM
TGI [59]: 33.5 µM

Source: PubChem BioAssay (NCI)
